Laboratory results published in patent US5397794A, “Use of thiazoloisoindolinone derivatives as antiviral medicaments” (Boehringer Mannheim GmbH, priority 1990, dated 1995).

Target: T1, HIV-RT (purified RT from HIV-1, expressed in E. coli) (Human immunodeficiency virus type 1 group M subtype B, UniProt P04585)
T1 construct: purified RT from HIV-1; made in house; host or cells: E. coli
Assay: Inhibition of HIV-1 reverse transcriptase (RT), [3H]-thymidine-5'-triphosphate incorporation
Assay type: biochemical
Conditions: purified recombinant HIV-1 RT; HIV-LTR in vitro transcript template, 18 mer primer
Source text: Inhibition of reverse transcriptase (RT) by 9b-phenyl-2,3-dihydrothiazolo[2,3-a]isoindol-5(9bH)-one.
The screening test system contains the purified RT from HIV-1, which was expressed by gene-technological methods in E. coli, as well as the components of the initiation complex, such as the in vitro transcripts of the HIV-LTR's with the neighbouring primer binding site as template and an 18 mer oligo-nucleotide as primer complementary to the primer binding site. The [^-3 H]-thymidine-5'-triphosphate incorporation was measured by counting in a β-counter.

In order of falling IC50:
1. Cc1cn([C@H]2C[C@H](N=[N+]=[N-])[C@@H](CO[P@](=O)(O)O[P@](=O)(O)OP(=O)(O)O)O2)c(=O)[nH]c1=O [AZT-TP, 3'-azido-3'-desoxythymidine-5'-triphosphate, reference compound]  6000 nM
2. O=C1c2ccccc2C2(c3ccc(Cl)cc3)SCCN12 (stereo not shown) [Example 3.2]  4000 nM
3. O=C1c2ccccc2C2(c3ccc(Cl)c(Cl)c3)SCCN12 (stereo not shown) [Example 3.4]  4000 nM
4. O=C1c2ccccc2C2(c3ccccc3)N1CCS2(=O)=O (stereo not shown) [Example 4, 9b-Phenyl-2,3-dihydrothiazolo[2,3-a]isoindol-5(9bH)-one 1,1-dioxide]  1400 nM
5. COc1cccc(C23SCCN2C(=O)c2ccccc23)c1 (stereo not shown) [Example 3.12]  1100 nM
6. O=C1c2ccccc2C2(c3cccc(C(F)(F)F)c3)SCCN12 (stereo not shown) [Example 3.15]  1000 nM
7. Cc1ccc(C)c(C23SCCN2C(=O)c2ccccc23)c1 (stereo not shown) [Example 3.18]  950 nM
8. Cc1cccc(C23SCCN2C(=O)c2ccccc23)c1C (stereo not shown) [Example 3.8]  800 nM
9. O=C1c2ccccc2C2(c3ccccc3)SCCN12 (stereo not shown) [Example 3.30, 9b-phenyl-2,3-dihydrothiazolo[2,3-a]isoindol-5(9bH)-one]  700 nM

System: not given
Assay: not given
Conditions: Hirsch, J. Infec. Dis. 157, 427-431 (1988); cited from earlier work

For `Cc1cn([C@H]2C[C@H](N=[N+]=[N-])[C@@H](CO)O2)c(=O)[nH]c1=O` [AZT, 3'-azido-3'-desoxythymidine], the therapeutic range is given as “very narrow therapeutic range”.
